Earlier results on 1 substance are cited in patent publication US20230159622A1, “COLLAGEN MIMICS” (Wisconsin Alumni Research Foundation, priority 2006, published 2023).

Marks after values point to notes of the source that are not given here.

For the data set the following is noted: based on the extrapolation of data from solutions containing trimethylamine N-oxide; literature reference.

For (Pro-Pro-Gly)7, the “Tm (±1° C.) of triple helix, based on extrapolation” value is given as −6^a ° C.
